Source: patent US8796333B2, “Method of using β-hydroxy-β-methylbutyrate to treat a condition” (Abbott Laboratories, priority 2005, dated 2014)

How the values were obtained:
[1] = system: respiratory tract infections; assay: Working examples: respiratory infections in individuals given HMB; type: in vivo, human; conditions: person recovered from pneumonia; 250 mg HMB (Nutritional Liquid #1) once a day for 6 months
Procedure: A person, after conventional treatment for and recovery from pneumonia, is administered 250 mg of HMB (Nutritional Liquid #1) once a day for 6 months.
A person is training for the New York Marathon. During their training period and for 3 months following the event they take two servings per day of Nutritional formula #6 (containing 1 gram HMB per serving).

[2] = system: ovarian cancer; assay: Working example: individual after chemotherapy for ovarian cancer given HMB; type: in vivo, human; conditions: person after chemotherapy; 2-10 g HMB (Nutritional Liquid #1) four times a week for a year
Procedure: A person who has undergone chemotherapy for ovarian cancer is administered 2-10 g of HMB (Nutritional Liquid #1) four times a week for a year.

[3] = system: kidney tumors; assay: Working example: individual treated for kidney tumors given HMB; type: in vivo, human; conditions: person; 750 mg HMB (capsules) four times a week for a year
Procedure: A person diagnosed with and has been treated for kidney tumors is administered 750 mg of HMB (capsules) four times a week for a year.

[4] = system: peripheral blood mononuclear cells (PBMC) stimulated with CD3/CD28; assay: Cytokine production by PBMCs stimulated with CD3/CD28 for 24 hours, Bio-plex Cytokine Assay; type: cell-based, human
Procedure: To induce production of cytokines, PBMCs, isolated from peripheral blood of 10 normal healthy donors, are stimulated for 24 hours with the T cell stimulant CD3/CD28. Cytokine production is analyzed using a Bio-plex Cytokine Assay. The Bio-Plex technology is based on antibody-antigen interactions, wherein fluorescently labeled beads conjugated with antibody directed against the cytokine of interest bind target cytokine to the bead. This bead-cytokine complex is then exposed to a biotinylated detection antibody and a streptavidin-PE (phycoerythrin) reporter molecule. The signal from the reporter molecule is directly proportional to the amount of cytokine present, thus enabling cytokine quantification.
Each of the T cell-derived cytokines quantified in the experiment is described in the following table:
A t-test (paired sample, two-tailed) is performed in which a broad range of type 1 and type 2 cytokines are evaluated from cultures with HMB compared to cultures and without HMB.

[5] = system: asthma; assay: Working examples: individuals having or at risk for asthma given HMB; type: in vivo, human
Procedure: A person who normally has four exacerbations of asthma per year is administered 1-10 g of HMB (Nutritional Liquid #5) four times a week for a year.
A person suffering from moderate persistent asthma is tested to determine the individual's FEV1 percentage value and the value is recorded.
A person suffering from mild intermittent asthma is tested to determine the individual's FEV1 percentage value and a value of 83% is recorded. The individual is then administered 1.5-6 g of HMB 4 times (Nutritional Liquid #5) a week for a year. One year later the individual's FEV1 remains above 80% and symptoms of asthma are reduced.
The individual is administered 250 mg of HMB (Nutritional Liquid #4) once a day for 6 months.

[6] = system: melanoma; assay: Working example: individual treated for melanoma given HMB; type: in vivo, human; conditions: person; 1 g HMB (Nutritional Liquid #1) 4 times a week for a year
[7] = system: stress; assay: Working examples: individuals with psychological, surgical or pre-surgical stress given HMB; type: in vivo, human; conditions: person
Procedure: A person suffering from severe symptoms of psychological stress as a result of a burn injury is administered 500 mg (Nutritional Liquid #1) of HMB 4 times a week for a year. One year later the symptoms of psychological stress are reduced.
A person suffering from symptoms of surgical stress is administered 200 mg of HMB (Nutritional Liquid #2) 7 times a week for 2 months. Two months later the symptoms of surgical stress are reduced.
A person suffering from symptoms of pre-surgical stress is administered 200 mg of HMB (capsules) once a day for 3 weeks preceding the individual's scheduled surgery. At the end of the 3 weeks, symptoms of pre-surgical stress are reduced.

[8] = system: seasonal allergies; assay: Working examples: individuals having or at risk for seasonal allergies given HMB; type: in vivo, human
Procedure: An individual who suffers from seasonal allergies in the spring is given 0.25-1 g of HMB (Nutritional Liquid #5) four times a week for a year. The symptoms of seasonal allergies are reduced the following spring.
The individual is administered 0.1-1.5 g of HMB (Nutritional Liquid #3) once a day for 6 months.

[9] = 1 mM, 5 mM and 10 mM HMB, FIG. 3
[10] = 5 mM and 10 mM HMB, PBMC, CD3/CD28, 24 hours, vs no HMB, FIG. 1
[11] = PBMC, CD3/CD28, 24 hours, vs no HMB, FIG. 1
[12] = PBMC, CD3/CD28, 24 hours, vs no HMB, FIG. 2
[13] = person, moderate persistent asthma, 5-10 g HMB (Nutritional Liquid #5) 4 times a week for a year

`CC(C)(O)CC(=O)O` [HMB, β-hydroxy-β-methylbutyrate] was tested, and the “respiratory tract infections, including recurrence of pneumonia, during six months” value [1] was “remains free of respiratory tract infections”, the “return of ovarian cancer one year later” value [2] was “has not returned” and the “spread of kidney tumor six months later” value [3] was “has not spread”. The “IL-2 production relative to IL-5 production” value [4, 9] was “increased”, the “IL-2 production relative to IL-13 production” value [4, 9] was “increased” and the “IL-2 production relative to IL-4 production” value ([4]; 5 mM and 10 mM HMB, FIG. 3) was “Increases”. For the same compound, the “IL-2 production relative to IL-10 production” value ([4]; 5 mM and 10 mM HMB, FIG. 3) was “Increases”, the “IL-12 production relative to IL-4” value ([4]; 5 mM and 10 mM HMB, FIG. 4) was “Increases” and the “IL-12 production relative to IL-5” value ([4]; 5 mM and 10 mM HMB, FIG. 4) was “Increases”. For the same compound, the “IL-12 production relative to IL-10” value ([4]; 5 mM and 10 mM HMB, FIG. 4) was “Increases”, the “IL-12 production relative to IL-13” value ([4]; 5 mM and 10 mM HMB, FIG. 4) was “Increases” and the “IFNγ production relative to IL-5” value ([4]; 5 mM and 10 mM HMB, FIG. 5) was “increases”. For the same compound, the “IL-2 production (type 1 cytokine)” value ([4]; 5 mM and 10 mM HMB, PBMC of 10 healthy donors, CD3/CD28, 24 hours, vs no HMB, FIG. 1) was “Significant dose response increases”, the “IFNγ production (type 1 cytokine)” value [4, 10] was “Significant dose response increases” and the “IL-12 production (type 1 cytokine)” value [4, 10] was “Significant dose response increases”. The “IFNγ production relative to IL-4” value ([4]; 10 mM HMB, FIG. 5) was “Increases”, the “IFNγ production relative to IL-10” value ([4]; 10 mM HMB, FIG. 5) was “Increases” and the “IL-10 production (type 2 cytokine)” value ([4]; 10 mM HMB, PBMC, CD3/CD28, 24 hours, vs no HMB, FIG. 2) was “significant decrease”. The GC-CSF production [4, 11] was “does not significantly affect”, the TNFα production [4, 11] was “does not significantly affect” and the “IL-4 production (type 2 cytokine)” value [4, 12] was “does not significantly affect”. The “IL-5 production (type 2 cytokine)” value [4, 12] was “does not significantly affect”, the “IL-13 production (type 2 cytokine)” value [4, 12] was “does not significantly affect” and the “signs of symptoms of asthma six months later” value ([5]; person with family history, no signs at start, 250 mg HMB (Nutritional Liquid #4) once a day for 6 months) was “still shows no signs”. The “FEV1 one year later” value ([5]; person, mild intermittent asthma, baseline FEV1 83%, 1.5-6 g HMB (Nutritional Liquid #5) 4 times a week for a year) was “above 80%”, the “symptoms of asthma one year later” value ([5]; person, mild intermittent asthma, 1.5-6 g HMB (Nutritional Liquid #5) 4 times a week for a year) was “reduced” and the “FEV1 one year later” value [5, 13] was “has not decreased”. The “symptoms of asthma one year later” value [5, 13] was “reduced”, the asthma exacerbation frequency ([5]; person, normally four exacerbations per year, 1-10 g HMB (Nutritional Liquid #5) four times a week for a year) was “decreases to once a year” and the “spread of melanoma six months later” value [6] was “has not spread”. The “symptoms of surgical stress, two months later” value ([7]; 200 mg HMB (Nutritional Liquid #2) 7 times a week for 2 months) was “reduced”, the “symptoms of pre-surgical stress at the end of 3 weeks” value ([7]; 200 mg HMB (capsules) once a day for 3 weeks before surgery) was “reduced” and the “symptoms of psychological stress after burn injury, one year later” value ([7]; 500 mg HMB (Nutritional Liquid #1) 4 times a week for a year) was “reduced”. The “symptoms of seasonal allergies the following spring” value ([8]; individual, 0.25-1 g HMB (Nutritional Liquid #5) four times a week for a year) was “reduced” and the “signs of seasonal allergies six months later” value ([8]; person with family history, no signs at start, 0.1-1.5 g HMB (Nutritional Liquid #3) once a day for 6 months) was “still shows no signs”.
